From publication PMC6896172, “Successful Targeting of the Warburg Effect in Prostate Cancer by Glucose-Conjugated 1,4-Naphthoquinones” (Cancers, 2019)

Assays:
PC-3 cells = test: MTT cytotoxicity assay in PC-3 cells; assay type: cell-based, human; conditions: for IC50: Homo sapiens, PC-3, 48 h, 48 h of treatment; for SI [IC50(PNT2) / IC50(PC-3)]: ratio of IC50 in PNT2 cells to IC50 in PC-3 cells, 48 h
Text: (§1) For general experiments human prostate cancer cell lines PC-3 and DU145 (docetaxel-resistant, androgen-independent, AR-FL(−), AR-V7(−)), 22Rv1 and VCaP (docetaxel-sensitive, androgen-independent, AR-FL(+), AR-V7(+), and LNCaP (docetaxel sensitive, androgen-dependent, AR-FL(+), AR-V7(−) were used. PC-3, 22Rv1, LNCaP cells as well as the human prostate non-cancer cells PNT2 and RWPE-1 were purchased from ATCC (Manassas, VA, USA). VCaP were purchased from ECACC (Salisbury, UK). The human fibroblast cell line MRC-9, the human embryonic kidney cell line HEK 293T, as well as the human umbilical vascular endothelial cell line HUVEC were kindly donated by Prof. Dr. Dr. med. Sonja Loges (University Medical Center Hamburg-Eppendorf, Hamburg, Germany). Cells were cultured according to the manufacturers’ instructions and were recently authenticated by a commercial service (Multiplexion, Heidelberg, Germany). Culture conditions are described in the Supplementary Information.
(§2) MTT (3-(4,5-dimethylthiazol-2-yl)-2,5-diphenyltetrazolium bromide) cytotoxicity assay was used for the evaluation of cytotoxicity of the compounds or their combinations. Experiments were performed as previously described. In brief, 6000 cells/well were seeded in 96-well plate, incubated overnight, and treated with the drugs in 100 µL/well of 10% FBS/RPMI media containing 2 g/L of D-(+)-glucose for 48 h, unless otherwise stated. For 2 h treatment the cells were treated with the drugs for 2 h in the culture media, then the media was exchanged to fresh drug-free media (100 µL/well) containing MTT reagent and the further steps were performed as previously described.
(§3) Table S4. Cytotoxic activity of the synthesized compounds. Cytotoxicity was determined in human prostate cancer PC-3 cells versus human prostate non-cancer
(§4) PNT2 cells after 48 h of treatment, as well as its ratio. IC50 was evaluated using MTT assay. SI–selectivity index. #–the IC50s in both cell lines were >100 µM.
(§5) Anisomycin was used as a reference substance.
(§6) No Formula IC50(PC-3) IC50(PNT2) SI […]

PNT2 cells = test: MTT cytotoxicity assay in PNT2 cells; assay type: cell-based, human; conditions: Homo sapiens, PNT2, 48 h, 48 h of treatment
Text: as §1, §2, §3, §4, §5, §6

Question: With `CC1(C)OC2OC3C(COC4=CC(=O)c5c(O)ccc(O)c5C4=O)OC(C)(C)OC3C2O1` (stereo not shown) [Compound 14] as the molecule, how does the IC50 (PC-3 cells) read?
Answer: 17.7 µM

Question: And the “SI [IC50(PNT2) / IC50(PC-3)]” value (PC-3 cells)?
Answer: 1.05

Question: What about the IC50 (PNT2 cells) of the same molecule?
Answer: 18.6 µM

Question: `CC1(C)OC2OC3C(COC4=CC(=O)c5c(O)c(Cl)c(Cl)c(O)c5C4=O)OC(C)(C)OC3C2O1` (stereo not shown) [Compound 26] was tested. Which IC50 (PC-3 cells) did it give?
Answer: 2.75 µM

Question: And the “SI [IC50(PNT2) / IC50(PC-3)]” value (PC-3 cells)?
Answer: 0.75

Question: And the IC50 (PNT2 cells)?
Answer: 2.07 µM

Question: How did the IC50 (PC-3 cells) turn out when `COC1=CC(=O)c2c(O)cccc2C1=O` [Compound 5] was run?
Answer: 4.46 µM

Question: What about the “SI [IC50(PNT2) / IC50(PC-3)]” value (PC-3 cells) of the same molecule?
Answer: 1.31

Question: What about the IC50 (PNT2 cells) of the same molecule?
Answer: 5.84 µM

Question: `O=C1C=C(OCC2OC(O)C(O)C(O)C2O)C(=O)c2c(O)ccc(O)c21` (stereo not shown) [Compound 16] was tested. Which IC50 (PC-3 cells) did it give?
Answer: > 100 µM

Question: What about the IC50 (PNT2 cells) of the same molecule?
Answer: > 100 µM

Question: For `CCc1c(O)c2c(c(O)c1OC)C(=O)C(OCC1OC(C)(C)OC3C1OC1OC(C)(C)OC13)=CC2=O` (stereo not shown) [Compound 18], which IC50 (PC-3 cells) is on record?
Answer: 13.6 µM

Question: What about the “SI [IC50(PNT2) / IC50(PC-3)]” value (PC-3 cells) of the same molecule?
Answer: 0.7

Question: What about the IC50 (PNT2 cells) of the same molecule?
Answer: 9.56 µM

Question: For `CC1(C)OC2OC(C(O)COC3=CC(=O)c4ccccc4C3=O)C(O)C2O1` (stereo not shown) [Compound 3], which IC50 (PC-3 cells) is on record?
Answer: 24.2 µM

Question: What about the “SI [IC50(PNT2) / IC50(PC-3)]” value (PC-3 cells) of the same molecule?
Answer: 1.28

Question: What about the IC50 (PNT2 cells) of the same molecule?
Answer: 31.1 µM

Question: Which IC50 (PC-3 cells) does the source give for `CC1(C)OC2OC(C(O)COC3=CC(=O)c4c(O)ccc(O)c4C3=O)C(O)C2O1` (stereo not shown) [Compound 15] here?
Answer: 5.46 µM

Question: And the “SI [IC50(PNT2) / IC50(PC-3)]” value (PC-3 cells)?
Answer: 1.03

Question: What about the IC50 (PNT2 cells) of the same molecule?
Answer: 5.65 µM

Question: With `CC1(C)OC2OC3C(COC4=CC(=O)c5cccc(O)c5C4=O)OC(C)(C)OC3C2O1` (stereo not shown) [Compound 10] as the molecule, how does the IC50 (PC-3 cells) read?
Answer: 4.16 µM

Question: What about the “SI [IC50(PNT2) / IC50(PC-3)]” value (PC-3 cells) of the same molecule?
Answer: 1.53

Question: What about the IC50 (PNT2 cells) of the same molecule?
Answer: 6.37 µM

Question: How did the IC50 (PC-3 cells) turn out when `O=C1C=C(OCC2OC(O)C(O)C(O)C2O)C(=O)c2ccccc21` (stereo not shown) [Compound 4] was run?
Answer: > 100 µM

Question: And the IC50 (PNT2 cells)?
Answer: > 100 µM

Question: For `CCc1c(O)c2c(c(O)c1Cl)C(=O)C(OCC1OC(C)(C)OC3C1OC1OC(C)(C)OC13)=CC2=O` (stereo not shown) [Compound 22], which IC50 (PC-3 cells) is on record?
Answer: 4.24 µM

Question: And the “SI [IC50(PNT2) / IC50(PC-3)]” value (PC-3 cells)?
Answer: 0.7

Question: And the IC50 (PNT2 cells)?
Answer: 2.98 µM

Question: How did the IC50 (PC-3 cells) turn out when `COC1=CC(=O)c2cccc(O)c2C1=O` [Compound 9] was run?
Answer: 2.85 µM

Question: What about the “SI [IC50(PNT2) / IC50(PC-3)]” value (PC-3 cells) of the same molecule?
Answer: 1.42

Question: What about the IC50 (PNT2 cells) of the same molecule?
Answer: 4.05 µM

Question: Which results are given for `CCc1c(O)c2c(c(O)c1Cl)C(=O)C(OCC(O)C1OC3OC(C)(C)OC3C1O)=CC2=O` (stereo not shown) [Compound 23]?
Answer: IC50 (PC-3 cells): 7.35 µM; SI [IC50(PNT2) / IC50(PC-3)] (PC-3 cells): 0.71; IC50 (PNT2 cells): 5.21 µM

Question: With `CCc1c(O)c2c(c(O)c1OC)C(=O)C(OC)=CC2=O` [Compound 17] as the molecule, how does the IC50 (PC-3 cells) read?
Answer: 21.8 µM

Question: And the “SI [IC50(PNT2) / IC50(PC-3)]” value (PC-3 cells)?
Answer: 0.57

Question: And the IC50 (PNT2 cells)?
Answer: 12.5 µM
